ChEMBL document CHEMBL6074684, “Structure-activity relationship study of novel evodiamine amino acid conjugates with potent anti-colorectal cancer efficacy” (Eur J Med Chem, 2025)
≈ marks a conversion by molar mass, not a printed value. One block for each compound: values may come before it. Calls of active or inactive are those of the source. No cut-off for these calls is given here.

Legend:
[1] = Toxicity in male BALB/c nude mouse xenografted with human LoVo cells assessed as body weight loss at 40 mg/kg, ip administered once daily for 14 days; type: organism-based; conditions: in vivo, 336 h, time 14 day
LoVo [2] = assay: Antitumor activity against human LoVo cells xenografted in male BALB/c nude mouse assessed as tumor growth inhibition at 40 mg/kg, ip administered once daily for 14 days relative to control; type: functional; conditions: 336 h, time 14 day, read-out: TGI
[3] = Aqueous solubility of compound by HPLC analysis; type: physicochemical
RKO [4] = assay: Cell cycle arrest in human RKO cells assessed as accumulation of cells at S phase at 90 nM incubated for 24 hrs by […]PI staining based flow cytometric analysis (reference value: 43.36 %); type: functional
LoVo [5] = assay: Cell cycle arrest in human LoVo cells assessed as accumulation of cells at G1 phase cells at 90 nM incubated for 24 hrs by […]PI staining based flow cytometric analysis (reference value: 29.69 %); type: functional
LoVo [6] = assay: Antiproliferative activity against human LoVo cells assessed as inhibition of cell growth incubated for 72 hrs by MTT assay; type: functional, cell-based
[7] = Half-life in male Sprague-Dawley rat at 50 mg/kg, ip measured after 24 hrs by LC-MS/MS analysis; type: ADME, organism-based; conditions: in vivo
[8] = Tmax in male Sprague-Dawley rat at 50 mg/kg, ip measured after 24 hrs by LC-MS/MS analysis; type: ADME, organism-based; conditions: in vivo
LoVo [9] = assay: Induction of morphological changes in human LoVo cells assessed as appearance of contracted nucleus at 90 nM incubated for 24 hrs by Giemsa staining based microscopic analysis; type: functional, cell-based
RKO [10] = assay: Induction of apoptosis in human RKO cells assessed as apoptosis rate at 90 nM incubated for 24 hrs by Annexin V/PI staining based flow cytometric analysis (reference value: 4.87 %); type: functional
HT-29 [11] = assay: Antiproliferative activity against human HT-29 cells assessed as inhibition of cell growth incubated for 72 hrs by MTT assay; type: functional, cell-based; conditions: HT-29, 72 h
[12] = Cmax in male Sprague-Dawley rat at 50 mg/kg, ip measured after 24 hrs by LC-MS/MS analysis; type: ADME, organism-based; conditions: in vivo
RKO [13] = assay: Induction of morphological changes in human RKO cells assessed as appearance of condensed morphology at 90 nM incubated for 24 hrs by Giemsa staining based microscopic analysis; type: functional, cell-based
LoVo [14] = assay: Induction of apoptosis in human LoVo cells assessed as apoptosis rate at 90 nM incubated for 24 hrs by Annexin V/PI staining based flow cytometric analysis (reference value: 4.71 %); type: functional
LoVo [15] = assay: Induction of morphological changes in human LoVo cells assessed as appearance of condensed morphology at 90 nM incubated for 24 hrs by Giemsa staining based microscopic analysis; type: functional, cell-based
RKO [16] = assay: Cell cycle arrest in human RKO cells assessed as accumulation of cells at G1 phase at 90 nM incubated for 24 hrs by […]PI staining based flow cytometric analysis (reference value: 35.29 %); type: functional
LoVo [17] = assay: Cell cycle arrest in human LoVo cells assessed as accumulation of cells at G2 phase cells at 90 nM incubated for 24 hrs by […]PI staining based flow cytometric analysis (reference value: 14.84 %); type: functional
RKO [18] = assay: Cell cycle arrest in human RKO cells assessed as accumulation of cells at G2 phase at 90 nM incubated for 24 hrs by […]PI staining based flow cytometric analysis (reference value: 20.07 %); type: functional
LoVo [19] = assay: Antiproliferative activity against human LoVo cells assessed as reduction in cell viability measured after 24 hrs; type: functional, cell-based; conditions: dose 40-200 nmol/L
HCT-116 = assay: Antiproliferative activity against human […] cells assessed as inhibition of cell growth incubated for 72 hrs by MTT assay; type: functional, cell-based; conditions: HCT-116, 72 h
LoVo [20] = assay: Cell cycle arrest in human LoVo cells assessed as accumulation of cells at S phase cells at 90 nM incubated for 24 hrs by […]PI staining based flow cytometric analysis (reference value: 54.99 %); type: functional
RKO [21] = assay: Antiproliferative activity against human RKO cells assessed as inhibition of cell growth incubated for 72 hrs by MTT assay; type: functional, cell-based
Mitochondrial membrane [22] = assay: Induction of mitochondrial membrane potential loss in human LoVo cells assessed as decrease in TMRE positive cells at 90 nM incubated for 24 hrs by TMRE staining based flow cytometric analysis; type: cell membranes
RKO [23] = assay: Induction of morphological changes in human RKO cells assessed as appearance of contracted nucleus at 90 nM incubated for 24 hrs by Giemsa staining based microscopic analysis; type: functional, cell-based
[24] = Apparent clearance during terminal phase in male Sprague-Dawley rat at 50 mg/kg, ip measured after 24 hrs by LC-MS/MS analysis; type: ADME, organism-based; conditions: in vivo, read-out: CLz/F (converted)
RKO [25] = assay: Antiproliferative activity against human RKO cells assessed as reduction in cell viability measured after 24 hrs; type: functional, cell-based; conditions: dose 40-200 nmol/L
Mitochondrial membrane [26] = assay: Induction of mitochondrial membrane potential loss in human RKO cells assessed as decrease in TMRE positive cells at 90 nM incubated for 24 hrs by TMRE staining based flow cytometric analysis; type: cell membranes
[27] = AUC (0 to t) in male Sprague-Dawley rat at 50 mg/kg, ip measured after 24 hrs by LC-MS/MS analysis; type: ADME, organism-based; conditions: in vivo
[28] = Toxicity in male BALB/c nude mouse xenografted with human LoVo cells assessed as animal death at 0.5 mg/kg, ip administered once daily for 14 days; type: organism-based; conditions: in vivo, 336 h, time 14 day
HT-29 [29] = assay: Antitumor activity against human HT-29 cells xenografted in male BALB/c nude mouse assessed as tumor growth inhibition at 0.5 mg/kg, ip administered once daily for 14 days relative to control; type: functional; conditions: HT-29, 336 h, time 14 day, read-out: TGI
[30] = Toxicity in male BALB/c nude mouse xenografted with human HT-29 cells assessed as body weight loss at 0.5 mg/kg, ip administered once daily for 14 days; type: organism-based; conditions: in vivo, 336 h, time 14 day
LoVo [31] = assay: Antitumor activity against human LoVo cells xenografted in male BALB/c nude mouse assessed as tumor growth inhibition at 0.5 mg/kg, ip administered once daily for 14 days; type: functional, organism-based; conditions: time 14.0 day
[32] = Toxicity in male BALB/c nude mouse xenografted with human LoVo cells assessed as body weight loss at 0.5 mg/kg, ip administered once daily for 14 days; type: organism-based; conditions: in vivo, 336 h, time 14 day
[33] = Toxicity in male BALB/c nude mouse xenografted with human HT-29 cells assessed as animal death at 0.5 mg/kg, ip administered once daily for 14 days; type: organism-based; conditions: in vivo, 336 h, time 14 day
[34] = target: T1, DNA topoisomerase 1 (Homo sapiens) (UniProt P11387); assay: Inhibition of topoisomerase 1 (unknown origin) mediated DNA relaxation at 100 uM preincubated for 20 mins followed by pBR322 plasmid DNA addition and measured after 15 mins by red nucleic acid gel staining based agarose gel electrophoresis; conditions: time 35.0 min
T1 sequence (whole entry): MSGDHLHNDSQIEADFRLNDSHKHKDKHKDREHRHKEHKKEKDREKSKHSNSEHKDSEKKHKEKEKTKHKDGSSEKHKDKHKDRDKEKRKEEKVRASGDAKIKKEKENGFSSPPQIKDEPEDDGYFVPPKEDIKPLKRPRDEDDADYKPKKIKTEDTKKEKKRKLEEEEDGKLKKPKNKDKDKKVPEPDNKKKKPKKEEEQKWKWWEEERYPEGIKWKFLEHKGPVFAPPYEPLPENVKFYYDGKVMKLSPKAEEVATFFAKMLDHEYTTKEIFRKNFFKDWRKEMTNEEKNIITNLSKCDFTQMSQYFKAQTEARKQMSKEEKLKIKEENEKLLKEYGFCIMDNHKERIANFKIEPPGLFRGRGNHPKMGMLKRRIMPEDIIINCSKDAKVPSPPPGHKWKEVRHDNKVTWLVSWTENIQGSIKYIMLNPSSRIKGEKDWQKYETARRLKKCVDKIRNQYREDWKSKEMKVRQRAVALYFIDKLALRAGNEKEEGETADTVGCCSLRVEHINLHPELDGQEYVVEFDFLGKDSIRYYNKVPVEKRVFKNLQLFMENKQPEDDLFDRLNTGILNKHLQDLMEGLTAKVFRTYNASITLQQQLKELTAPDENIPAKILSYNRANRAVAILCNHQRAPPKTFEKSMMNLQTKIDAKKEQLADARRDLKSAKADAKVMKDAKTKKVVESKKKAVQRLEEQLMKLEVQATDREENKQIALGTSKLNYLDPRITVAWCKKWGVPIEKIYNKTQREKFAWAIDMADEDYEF

HGC-27 = assay: Antiproliferative activity against human HGC-27 cells assessed as inhibition of cell growth incubated for 72 hrs by MTT assay; type: functional, cell-based; conditions: HGC-27, 72 h
SGC-7901 = assay: Antiproliferative activity against human SGC-7901 cells assessed as inhibition of cell growth incubated for 72 hrs by MTT assay; type: functional, cell-based; conditions: SGC-7901, 72 h
SK-HEP1 = assay: Antiproliferative activity against human SK-HEP1 cells assessed as inhibition of cell growth incubated for 72 hrs by MTT assay; type: functional, cell-based; conditions: SK-HEP1, 72 h
MCF7 = assay: Antiproliferative activity against human MCF7 cells assessed as inhibition of cell growth incubated for 72 hrs by MTT assay; type: functional, cell-based; conditions: MCF7, 72 h
Huh-7 = assay: Antiproliferative activity against human Huh-7 cells assessed as inhibition of cell growth incubated for 72 hrs by MTT assay; type: functional, cell-based; conditions: Huh-7, 72 h
MGC-803 = assay: Antiproliferative activity against human MGC-803 cells assessed as inhibition of cell growth incubated for 72 hrs by MTT assay; type: functional, cell-based; conditions: MGC-803, 72 h

Compound: O=C1c2cc(F)ccc2N(c2cccc(F)c2)[C@@H]2c3[nH]c4ccc(O)cc4c3CCN12
Activity [1]: Toxic | inhibition in vivo at 40 mg/kg (LoVo [2]): 51.2% | solubility [3]: 3.24 µg/mL (≈ 7.76 µM) | Activity (RKO [4]): 21.88% | Activity (LoVo [5]): 18.84% | IC50 (LoVo [6]): 0.17 µM | half-life [7]: 4.18 h | Tmax [8]: 0.5 h | Activity (LoVo [9]): Active | Activity (RKO [10]): 13.9% | IC50 (HT-29 [11]): 0.21 µM | Cmax [12]: 2190 ng/mL | Activity (RKO [13]): Active | Activity (LoVo [14]): 25.44% | Activity (LoVo [15]): Active | Activity (RKO [16]): 35.52% | Activity (LoVo [17]): 31.88% | Activity (RKO [18]): 42.34% | Activity (LoVo [19]): Dose-dependent-effect | IC50 (HCT-116): 0.27 µM | Activity (LoVo [20]): 48.04% | IC50 (RKO [21]): 0.13 µM | Activity (Mitochondrial membrane [22]): Active | Activity (RKO [23]): Active | CL/F [24]: 77.8 mL/min/kg | Activity (RKO [25]): Dose-dependent-effect | Activity (Mitochondrial membrane [26]): Active | AUC(0-t) at 24 h [27]: 4350 ng·h/mL

Compound: CC[C@@]1(O)C(=O)OCc2c1cc1n(c2=O)Cc2cc3c(CN(C)C)c(O)ccc3nc2-1 [TOPOTECAN]
Activity [28]: Toxic | inhibition in vivo at 0.5 mg/kg (HT-29 [29]): 70.7% | Activity [30]: Toxic | Activity (LoVo [31]): Active | Activity [32]: Toxic | Activity [33]: Toxic

solubility [3]: 7.58 µg/mL (≈ 18.2 µM) | IC50 (LoVo [6]): 0.35 µM | inhibition [34]: Active; Little Effect Observed | IC50 (HT-29 [11]): 0.16 µM | IC50 (HCT-116): 0.2 µM
Compound: O=C1c2cc(F)ccc2N(c2cccc(F)c2)C2c3[nH]c4ccc(O)cc4c3CCN12 (racemic)
IC50 (RKO [21]): 0.17 µM

IC50 (LoVo [6]): 12.7 µM | IC50 (SGC-7901): 59.6 µM | IC50 (SK-HEP1): 37 µM | inhibition [34]: Active; Better Activity Than Evodiamine | IC50 (HT-29 [11]): 26.8 µM | IC50 (MCF7): 24.6 µM | IC50 (HCT-116): 19.2 µM | IC50 (Huh-7): 11.5 µM | IC50 (MGC-803): 15.1 µM
Compound: CC(C)(C)OC(=O)N[C@@H](CCC(N)=O)C(=O)Oc1ccc2[nH]c3c(c2c1)CCN1C(=O)c2cc(F)ccc2N(c2cccc(F)c2)[C@@H]31
IC50 (HGC-27): 18.8 µM | IC50 (RKO [21]): 9.3 µM
